Assay results taken from ChEMBL document CHEMBL5543084, “Development of cannabidiol derivatives as potent broad-spectrum antibacterial agents with membrane-disruptive mechanism” (Eur J Med Chem, 2024).
≈ marks a conversion by molar mass, not a printed value. Calls of active or inactive are those of the source. No cut-off for these calls is given here.

Tests used:
[1] = tested on: Staphylococcus aureus; test: Bactericidal activity against methicillin-resistant Staphylococcus aureus NCTC 10442 assessed as up regulation of alanine/aspartate and glutamate metabolism gene expression at 4 times of MIC concentration measured after 90 mins incubation by RNA sequencing (RNA-seq) study; type: functional, organism-based
[2] = tested on: Pseudomonas aeruginosa; test: Antibacterial activity against Pseudomonas aeruginosa ATCC 9027 assessed as inhibition of bacterial growth incubated for 24 hrs by broth dilution method; type: functional
[3] = Cytotoxicity against human HepG2 cells assessed as viable cells at […] microg/ml incubated for 24 hrs by CCK-8 assay; type: toxicity, cell-based; settings: dose 1.56 µg/ml, read-out: Activity
[4] = tested on: Staphylococcus aureus; test: Drug resistance, ratio of MIC for Staphylococcus aureus NCTC 10442 after 21 passages to MIC for Staphylococcus aureus NCTC 10442 during first exposure; type: functional
[5] = tested on: Escherichia coli; test: Antibacterial activity against Escherichia coli ATCC 25922 assessed as inhibition of bacterial growth incubated for 24 hrs in presence of 4.5 mM K+ by broth dilution method; type: functional
[6] = tested on: Cell membrane; test: Induction of outer membrane permeabilization in Pseudomonas aeruginosa ATCC 9027 assessed as increase in fluorescence intensity at 1 to 8 times MIC concentration by NPN-dye based fluorescence analysis; type: cell membranes
[7] = tested on: Klebsiella pneumoniae; test: Antibacterial activity against Klebsiella pneumoniae ATCC 10031 assessed as inhibition of bacterial growth incubated for 24 hrs in presence of 2.5 mM Ca2+ by broth dilution method; type: functional
[8] = Toxicity in C57BL6 mouse assessed as corneal damage treated in eyeballs 4 times in a day for 3 consecutive days; settings: in vivo, topical_or_ocular
[9] = tested on: Klebsiella pneumoniae; test: Antibacterial activity against Klebsiella pneumoniae ATCC 10031 assessed as inhibition of bacterial growth incubated for 24 hrs in presence of 4.5 mM K+ by broth dilution method; type: functional
[10] = tested on: Staphylococcus aureus; test: Bactericidal activity against methicillin-resistant Staphylococcus aureus NCTC 10442 assessed as down-regulation of biological processes related gene expression by measuring pyrimidine ribonucleoside monophosphate metabolic (GO:0009173) at 4 times of MIC concentration measured after 90 mins incubation by RNA sequencing (RNA-seq) study; type: functional, organism-based
[11] = tested on: Staphylococcus aureus; test: Antibacterial activity against Staphylococcus aureus ATCC 29213 assessed as inhibition of bacterial growth incubated for 24 hrs in presence of 4.5 mM K+ by broth dilution method; type: functional
[12] = tested on: Lipoteichoic acid; test: Displacement of BODIPY-TR-cadaverine from Bacillus subtilis lipoteichoic acid (LTA) assessed as increase in fluorescence intensity at 1 times MIC measured after 30 mins by fluorescence spectrophotometric analysis
[13] = tested on: Escherichia coli; test: Bactericidal activity against Escherichia coli ATCC 25922 assessed as down-regulation down of ferroxidase activity (GO:0004322) at 4 times of MIC concentration measured after 90 mins incubation by RNA sequencing (RNA-seq) study; type: functional, organism-based
[14] = Cytotoxicity against human HepG2 cells assessed as viable cells at 12.5 microg/ml incubated for 24 hrs by CCK-8 assay; type: toxicity, cell-based; settings: at 12.5 µg/mL, read-out: Activity
[15] = tested on: Escherichia coli; test: Bactericidal activity against Escherichia coli ATCC 25922 assessed as down-regulation of intracellular sequestering of iron ion (GO:0006880) at 4 times of MIC concentration measured after 90 mins incubation by RNA sequencing (RNA-seq) study; type: functional, organism-based
[16] = Cytotoxicity against mouse fibroblast NCTC clone 929 cells assessed as viable cells at 12.5 microg/ml incubated for 24 hrs by CCK-8 assay; type: toxicity, cell-based; settings: NCTC clone 929 (L929) fibroblast cells, at 12.5 µg/mL, read-out: Activity
[17] = tested on: Staphylococcus aureus; test: Antibacterial activity against Staphylococcus aureus ATCC 29213 assessed as inhibition of bacterial growth incubated for 24 hrs by broth dilution method; type: functional
[18] = tested on: Staphylococcus aureus; test: Bactericidal activity against methicillin-resistant Staphylococcus aureus NCTC 10442 assessed as change in cell death associated gene expression by measuring down-regulation of quorum sensing gene DX983_RS05700 gene expression at 4 times of MIC concentration measured after 90 mins incubation by RNA sequencing (RNA-seq) study; type: functional, organism-based
[19] = tested on: Staphylococcus aureus; test: Antibacterial activity against Staphylococcus aureus ATCC 29213 assessed as inhibition of bacterial growth incubated for 24 hrs in presence of 19 uM Zn2+ by broth dilution method; type: functional
[20] = tested on: Escherichia coli; test: Bactericidal activity against Escherichia coli ATCC 25922 assessed as change in cell death associated gene expression by measuring down-regulation of LPS export ABC transporter periplasmic-encoding gene (lptC, D1792_RS12575) gene expression at 4 times of MIC concentration measured after 90 mins incubation by RNA sequencing (RNA-seq) study; type: functional, organism-based
[21] = tested on: Klebsiella pneumoniae; test: Antibacterial activity against Klebsiella pneumoniae ATCC 10031 assessed as inhibition of bacterial growth incubated for 24 hrs in presence of 19 uM Zn2+ by broth dilution method; type: functional
[22] = tested on: Staphylococcus aureus; test: Bactericidal activity against methicillin-resistant Staphylococcus aureus NCTC 10442 assessed as change in metabolic stress associated gene expression by measuring down-regulation of glucosaminidase domain-containing protein (atl, DX983_RS02250) gene expression at 4 times of MIC concentration measured after 90 mins incubation by RNA sequencing (RNA-seq) study; type: functional, organism-based; settings: NTCC 10442
[23] = tested on: Staphylococcus aureus; test: Antibacterial activity against methicillin-resistant Staphylococcus aureus N315 assessed as inhibition of bacterial growth incubated for 24 hrs by broth dilution method; type: functional
[24] = tested on: Staphylococcus aureus; test: Bactericidal activity against methicillin-resistant Staphylococcus aureus NCTC 10442 assessed as bacterial reduction at 4 time of MIC concentration incubated for 2 hrs by time-kill assay; type: functional
[25] = tested on: Escherichia coli; test: Bactericidal activity against Escherichia coli ATCC 25922 assessed as bacterial reduction at 4 time of MIC concentration incubated for 2 hrs by time-kill assay; type: functional
[26] = tested on: Escherichia coli; test: Bactericidal activity against Escherichia coli ATCC 25922 assessed as change in metabolic stress associated gene expression by measuring down-regulation of gale (DX983_RS06370) gene expression at 4 times of MIC concentration measured after 90 mins incubation; type: functional, organism-based
[27] = tested on: Staphylococcus aureus; test: Antibacterial activity against Staphylococcus aureus ATCC 29213 assessed as inhibition of bacterial growth incubated for 24 hrs in presence of 140 mM Na+ by broth dilution method; type: functional
[28] = tested on: Klebsiella pneumoniae; test: Antibacterial activity against Klebsiella pneumoniae ATCC 10031 assessed as inhibition of bacterial growth incubated for 24 hrs in presence of 1 mM Mg2+ by broth dilution method; type: functional
[29] = tested on: Escherichia coli; test: Antibacterial activity against Escherichia coli ATCC 25922 assessed as inhibition of bacterial growth incubated for 24 hrs in presence of 1 mM Mg2+ by broth dilution method; type: functional
[30] = tested on: Staphylococcus aureus; test: Antibacterial activity against Staphylococcus aureus ATCC 29213 assessed as inhibition of bacterial growth incubated for 24 hrs in presence of 20 uM Fe3+ by broth dilution method; type: functional
[31] = tested on: Staphylococcus aureus; test: Bactericidal activity against methicillin-resistant Staphylococcus aureus NCTC 10442 assessed as up-regulation of molecular functions related gene expression by measuring uracil DNA N-glycosylase activity (GO:0004844) at 4 times of MIC concentration measured after 90 mins incubation by RNA sequencing (RNA-seq) study; type: functional, organism-based
[32] = tested on: Staphylococcus aureus; test: Antibacterial activity against methicillin-resistant Staphylococcus aureus NCTC 10442 assessed as inhibition of bacterial growth incubated for 24 hrs in presence of 2.5 mM Ca2+ by broth dilution method; type: functional

## C=C(C)[C@@H]1CCC(C)=C[C@H]1c1c(OCCCNC(=N)N)cc(CCCCC)cc1OCCCNC(=N)N
[1]
  Activity: Active
[2]
  MIC: 6.25 µg/mL (≈ 12.2 µM)
[3]
  viability at 24 h, 1.56 microg/ml: 113%
[4]
  Ratio: 4
[5]
  MIC: 1.56 µg/mL
[6]
  Activity: Dose-Dependent Effect
[7]
  MIC: 6.25 µg/mL
[8]
  Activity: Non-Toxic
[9]
  MIC: 6.25 µg/mL
[10]
  Activity: Active
[11]
  MIC: 0.78 µg/mL
[12]
  Activity: 11.2%
[13]
  Activity: Active
[14]
  viability at 24 h, 12.5 microg/ml: 91.3%
[15]
  Activity: Active
[16]
  viability at 24 h, 12.5 microg/ml: 80.4%
[17]
  MIC: 0.78 µg/mL (≈ 1.52 µM)
[18]
  Activity: Active
[19]
  MIC: 0.78 µg/mL
[20]
  Activity: Active
[21]
  MIC: 3.12 µg/mL
[22]
  Activity: Active
[23]
  MIC: 0.39 µg/mL (≈ 0.761 µM)
[24]
  Activity: 3 log10FFU/ml
[25]
  Activity: 5.52 log10FFU/ml
[26]
  Activity: Active
[27]
  MIC: 0.78 µg/mL
[28]
  MIC: 6.25 µg/mL
[29]
  MIC: 1.56 µg/mL
[30]
  MIC: 0.39 µg/mL
[31]
  Activity: Active
[32]
  MIC: 0.39 µg/mL
